Target: Serotonin N-acetyltransferase (Ovis aries) (UniProt Q29495)
Assay: AANAT activity was measured using a spectrophotometric assay in which the enzymatic product CoASH concentration were determined indirectly by monitoring its reaction product with DTNB at 412nm.
Conditions: pH 6.8

Chain of Serotonin N-acetyltransferase (Ovis aries) (Q29495 whole entry, looked up): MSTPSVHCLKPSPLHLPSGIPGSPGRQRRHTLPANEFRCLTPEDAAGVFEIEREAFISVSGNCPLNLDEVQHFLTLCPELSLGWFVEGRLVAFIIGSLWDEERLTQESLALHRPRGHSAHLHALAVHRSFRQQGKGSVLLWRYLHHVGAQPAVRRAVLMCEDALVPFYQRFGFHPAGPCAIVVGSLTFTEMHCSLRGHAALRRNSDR

## CC(C)(COP(=O)(O)OP(=O)(O)OC[C@H]1OC(n2cnc3c(N)ncnc32)[C@@H](O)[C@@H]1OP(=O)(O)O)[C@@H](O)C(=O)NCCC(=O)NCCSCCCCCc1c[nH]c2ccccc12 (some centres undefined) [AANAT bisubstrate analog, 4]
  Ki: 360 nM

## CC(C)(COP(=O)(O)OP(=O)(O)OC[C@H]1OC(n2cnc3c(N)ncnc32)[C@@H](O)[C@@H]1OP(=O)(O)O)[C@@H](O)C(=O)NCCC(=O)NCCSCCCNCCc1c[nH]c2ccccc12 (some centres undefined) [AANAT bisubstrate analog, 7]
  Ki: 5840 nM

## CC(C)(COP(=O)(O)OP(=O)(O)OC[C@H]1OC(n2cnc3c(N)ncnc32)[C@@H](O)[C@@H]1OP(=O)(O)O)[C@@H](O)C(=O)NCCC(=O)NCCSCCCc1c[nH]c2ccccc12 (some centres undefined) [AANAT bisubstrate analog, 6]
  Ki: 840 nM

## CC(C)(COP(=O)(O)OP(=O)(O)OC[C@H]1OC(n2cnc3c(N)ncnc32)[C@@H](O)[C@@H]1OP(=O)(O)O)[C@@H](O)C(=O)NCCC(=O)NCCSCCCCc1c[nH]c2ccccc12 (some centres undefined) [AANAT bisubstrate analog, 5]
  Ki: 310 nM

— BindingDB's records for doi:10.1016/S0045-2068(03)00081-6 (Johns Hopkins University School of Medicine, 2003)
